Assay results from article PMC8301926 (Biomolecules, 2021).
Several values for one entry are separate records, joined by “and”; a condition that tells them apart may be missing. Identical values can stand only once.

Experiments:
[1] = target: T1, recombinant human monoamine oxidase A (hMAO-A) (Homo sapiens, UniProt P21397); test: hMAO-A inhibition, MAO-Glo chemiluminescent assay; assay type: biochemical
T1 sequence (P21397 1-527): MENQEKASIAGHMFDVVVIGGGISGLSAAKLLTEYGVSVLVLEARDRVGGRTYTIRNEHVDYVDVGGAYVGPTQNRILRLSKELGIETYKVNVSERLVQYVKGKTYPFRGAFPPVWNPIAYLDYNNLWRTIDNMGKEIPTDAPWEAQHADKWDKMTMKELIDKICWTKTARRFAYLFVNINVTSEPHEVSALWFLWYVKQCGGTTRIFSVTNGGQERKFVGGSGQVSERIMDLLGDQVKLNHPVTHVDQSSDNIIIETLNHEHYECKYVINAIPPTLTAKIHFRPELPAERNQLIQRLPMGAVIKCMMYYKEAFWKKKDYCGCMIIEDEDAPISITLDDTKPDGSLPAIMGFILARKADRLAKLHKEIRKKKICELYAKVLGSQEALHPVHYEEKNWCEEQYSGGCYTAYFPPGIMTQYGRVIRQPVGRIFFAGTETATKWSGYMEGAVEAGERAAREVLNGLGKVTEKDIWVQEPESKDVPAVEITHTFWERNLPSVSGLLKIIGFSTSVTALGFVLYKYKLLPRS

[2] = target: T2, human M4 muscarinic acetylcholine receptor (hM4R) (Homo sapiens, UniProt P08173); test: M4 (h) functional GPCR assay, antagonist effect, cAMP HTRF; assay type: cell-based; conditions: CHO
T2 construct: host or cells: CHO cells
T2 sequence (P08173 1-479): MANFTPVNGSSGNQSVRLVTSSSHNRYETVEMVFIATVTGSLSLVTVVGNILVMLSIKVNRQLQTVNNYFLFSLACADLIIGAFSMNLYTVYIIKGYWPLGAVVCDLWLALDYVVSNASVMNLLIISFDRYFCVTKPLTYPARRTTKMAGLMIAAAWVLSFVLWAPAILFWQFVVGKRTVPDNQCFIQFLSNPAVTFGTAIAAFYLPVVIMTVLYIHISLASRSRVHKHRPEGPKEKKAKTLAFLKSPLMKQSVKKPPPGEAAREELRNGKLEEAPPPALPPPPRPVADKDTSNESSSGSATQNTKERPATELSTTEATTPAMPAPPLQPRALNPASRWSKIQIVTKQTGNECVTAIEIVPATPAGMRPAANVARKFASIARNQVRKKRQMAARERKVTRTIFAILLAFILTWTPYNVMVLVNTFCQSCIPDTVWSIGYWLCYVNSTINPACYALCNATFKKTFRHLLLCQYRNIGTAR
Experimental: The cellular and nuclear receptor functional assays were carried out at Eurofins Cerep (Le Bois I’ Eveque, France) following the in-house protocols (catalog items G029-1262, G029-1474, G030-1658, G030-1659, G031-1243, G031-1244, G032-1670, G032-1671, G033-4217, and G033-4212). The experimental methods for the assays were as described in the previous reports and the general methodology is summarized in the Supplementary Information Table S1. Recombinant human Chinese hamster ovary (CHO) cells and rat basophilic leukemic (RBL) cells were transfected with the GPCR genes of interest (hM1R, hM2R, hM3R, hM4R, and hM5R). The functional assay provided the readouts based on the measurements of calcium ion mobilization (for the Gαq/11-coupled receptors) and cAMP level (for the Gαi/o-coupled receptors).
Stable CHO cells expressing the transfected cDNA of human M2 receptors were suspended in a medium containing HBSS buffer complemented with 20-mM HEPES buffer (pH 7.4) and 500-µM IBMX, whereas the stable human M4 receptor cloned CHO cells were distributed in HBSS buffer with 20-mM HEPES/NaOH (pH 7.4), 70-mM NaCl, 5.33-mM KCl, 1.25-mM CaCl2, 0.5-mM MgCl2, 0.41-mM MgSO4, 0.441-mM KH2PO4, 0.3-mM Na2HPO4, 0.1% glucose, and 500-µM IBMX. […] The cAMP level was calculated as the ratio of the signal measured at 665 nm to that measured at 620 nm. […]
Assay Source Stimulus Incubation Measured Detection References […]

[3] = parameters: method as in PMID 31943245; conditions: rats, cited from earlier work

Compound: Cc1coc2c1C(=O)C(=O)c1c-2ccc2c(C)cccc12 [Tanshinone I]
- IC50 ([1]; IC50, hMAO-A, mean ± SD of triplicate experiments): < 10000 nM and 2620 nM
- SI (selectivity index) ([1]; ratio of the IC50 value for hMAO-A inhibition to that for hMAO-B inhibition): 0.11
- inhibition at 100 µM [2]: 56.1 ± 2.4%
- tissue distribution ([3]; after oral administration): distribution of 1 into the brain
- half-life ([3]; oral administration, among tanshinones 1, 2, 3, and Dtan I): most extended half-life
